Calls of active or inactive are those of the source. The rule behind the calls is not given here.
What was measured:
[1] = test system: RAW264.7; test: Protection against LPS/IFN-gamma-induced cell damage in mouse RAW264.7 cells by MTT assay; assay type: functional, cell-based
[2] = test system: RAW264.7; test: Cytotoxicity against mouse RAW264.7 cells assessed as cell viability at 25 to 100 uM by MTT assay; assay type: cell-based; conditions: raw264.7, 100 µM
[3] = Antioxidant activity in PBS buffer assessed as nitric oxide scavenging activity by measuring inhibition of nitrite production from NOR3 after 60 mins; assay type: functional
[4] = test system: RAW264.7; test: Antiinflammatory activity in mouse RAW264.7 cells assessed as inhibition of LPS/IFN-gamma-induced iNOS gene expression at 25 uM by RT-PCR analysis; assay type: functional
[5] = test system: RAW264.7; test: Antiinflammatory activity in mouse RAW264.7 cells assessed as inhibition of LPS/IFN-gamma-induced NO production after 20 hrs by Griess method; assay type: functional, cell-based
[6] = test system: RAW264.7; test: Antiinflammatory activity in mouse RAW264.7 cells assessed as inhibition of LPS/IFN-gamma-induced iNOS protein production at 100 uM by RT-PCR analysis; assay type: functional, cell-based
[7] = test system: RAW264.7; test: Antiinflammatory activity in mouse RAW264.7 cells assessed as inhibition of LPS/IFN-gamma-induced NO production at 25 to 100 uM after 20 hrs by Griess method; assay type: functional, cell-based

Structure (SMILES) | Activity [1] | Activity [2] | inhibition [3] | inhibition at 25 µM [4] [%] | inhibition [5] | inhibition [6] | inhibition [7]
COc1c(C)c(O)c(Cc2c(O)cc(O)c3c2O[C@H](c2ccc(O)c(O)c2)[C@@H](O)C3)c(O)c1C(C)=O [PILOSANOL N] | Dose-dependent effect | Non-toxic | Dose-dependent effect | 60 | Dose-dependent effect | Active | 
C[C@@H]1O[C@@H](Oc2c(-c3ccc(O)c(O)c3)oc3cc(O)cc(O)c3c2=O)[C@H](O)[C@H](O)[C@H]1O |  |  |  |  |  |  | Active
